One data set deals with Diabetic DBA/2 mice. The experiment in a line: Marginal islet cell mass transplantation model. In kind it is in vivo. The procedure:
FIG. 35A-35C. Reversal of diabetes following transplantation of a marginal mass of syngeneic islets. Diabetic DBA/2 mice received 200 syngeneic islet cells under the right kidney capsule. Reversal of diabetes was defined as random nonfasting blood glucose levels below 200 mg/dl on 3-consecutive days. (A) Blood glucose levels of each individual control mouse following transplantation of 200 syngeneic islets. (B) Blood glucose levels of each individual SS-31 treated mouse following transplantation of 200 syngeneic islets. (C) Reversal of diabetes following transplantation of a marginal islet cell mass in SS-31 treatment vs. control. Number of normoglycemic mice by day 1, 3, 5, 10 and 14 post transplantation and two-tailed P-valued calculated using chi-squared bivariate analysis are shown.
In a marginal islet cell mass transplantation model, 0 of 8 recipients of islets isolated from pancreas harvested from the control mice had successful reversal of hyperglycemia (defined as three consecutive blood glucose levels<200 mg/dl), whereas sustained normoglycemia occurred in 5 of ten recipients of islets isolated from pancreas from the SS-31 treated donor mice (FIG. 35).

The next data set concerns SN-4741 cells. Put plainly: MPP+ toxicity, apoptosis by Hoechst 33342. In kind it is cell-based. To be noted: 50 μM MPP+, 1 nM SS-31, 48 h. On the procedure:
(A) SS-31 protects dopamine cells against MPP^+ toxicity. SN-4741 cells were treated with buffer, 50 μM MPP^+ or 50 μM MPP^+ and 1 nM SS-31, for 48 h, and the incidence of apoptosis was determined by fluorescent microscopy with Hoechst 33342.

Another data set concerns DBA/2 islet cells. The experiment in a line: Islet cell uptake of [3H]SS-31. In kind it is in vitro ADME, mouse. The procedure:
FIG. 33A-33B. SS peptides penetrate islet cells, co-localize with mitochondria and preserve islet mitochondrial membrane potential. (A) Islet cell uptake of SS-31. DBA/2 islet cells were incubated with 1 nM of tritium labeled SS-31 and 1 μM unlabeled SS-31 at 37° C. for 1 h. Following incubation, radioactivity was measured in the medium and in cell lysates and the radioactive counts in the medium were subtracted from radioactive counts in the cell lysate and normalized to protein content. In four consecutive experiments, the mean±(SE) [^3H]SS-31 uptake was 70.2+/31 10.3 pmol/mg, of proteins (B)(i-iv) SS-31 preserves islet mitochondrial potential. DBA/2 mice were treated with SS-31 (3 mg/kg s.c. BID) or vehicle control 24 hours prior to pancreas harvest for islet isolation. SS-31 treated groups had 1 nM SS-31 added to the islet isolation reagents. Following isolation, TMRM uptake was evaluated using confocal laser scanning microscopy.
Islets are tightly adherent cell clusters and entry of peptides/proteins may be impaired given their architecture.

Data set [1] has as its system isolated guinea pig hearts. The experiment in a line: Isolated hearts, 18 h cold ischemia followed by warm reperfusion. The note with it: 1 nM SS-31 in cardioplegic solution, 18 h at 4° C. The procedure:
Isolated guinea pig hearts were perfused in a retrograde manner in a Langendorff apparatus with a cardioplegic solution (St. Thomas solution) without or with SS-31 (1 nM) for 3 min. and then clamped and stored at 4° C. for 18 h. Subsequently, the hearts were remounted in the Langendorff apparatus and reperfused with Krebs-Henseleit solution at 34° C. for 90 min. Hearts were then rapidly fixed and paraffin-embedded.
(B) Immunohistochemical analysis of HNE-modified proteins in paraffin sections from guinea pig hearts stored without (a) or with (b) SS-31 (1 nM). (c) Background staining without primary antibody.
Apoptosis was assessed by the TUNEL stain (green) and nuclei are visualized by DAPI (blue).

Another data set relates to N2A cells. The experiment in a line: Pan-caspase activity (FLICA kit) after tBHP. Type of data set: cell-based, murine. On the procedure: FIG. 21A-B. SS-31 prevented caspase activation in N2A cells treated with tBHP. […]
[…] All treatments were carried out in quadriplicates. […] Cells were gently lifted from the plates with a cell detachment solution (Accutase, Innovative Cell Technologies, Inc., San Diego, Calif.) and washed twice in PBS. Caspase activity was assayed using the FLICA kit (Immunochemistry Technologies LLC, Bloomington, Minn.) According to the manufacturer's recommendation, cells were resuspended (approx. 5×10^6 cells/ml) in PBS and labeled with pan-caspase inhibitor FAM-VAD-FMK for 1 h at 37° C. under 5% CO2 and protected from the light. Cells were then rinsed to remove the unbound reagent and fixed. Fluorescence intensity in the cells was measured by a […] (Beckman-Coulter XL, Beckman Coulter, Inc., Fullerton, Calif.) using the standard emission filters for green (FL1). For each run, 10,000 individual events were collected and stored in list-mode files for off-line analysis.

For data set [2], the system named is C57BL/6 mice subjected to 30 min MCAO. The experiment in a line: Redox status (cysteine, ascorbate, GSH) after transient MCAO. Type of data set: in vivo. The note with it: 2 mg/kg i.p. upon reperfusion, 6 h. The procedure: FIG. 31A-31C. Effect of SS-31 peptide on ischemia-induced changes in cysteine (A) ascorbate (B), and GSH (C) levels, C57BL/6 mice were subjected to 30 min MCAO and treated with vehicle, SS-31 (2 mg/kg body weight) or SS-20 (2 mg/kg body eight) peptide immediately after reperfusion. Mice were sacrificed at 6 h postischemia. Values are expressed as percent increase (cysteine) or percent depletion (ascorbate and GSH) in ipsilateral side versus contralateral side. Error bars indicate SEM (n=4-6 animals per group).
To test the efficacy of SS-3 1 on redox status, cysteine, ascorbate and GSH levels were determined 6 h after 30 min transient middle cerebral artery occlusion (MCAO) in mice treated intraperitoneally (i.p.) with saline (vehicle), SS-31 (2 mg/kg) or SS-20 (2 mg/kg) upon reperfusion. Values in FIG. 31 are expressed as percent increase (cysteine) and percent depletion (ascorbate and GSH) in the ipsilateral side compared to the contralateral side. Absolute values were originally expressed as nmoles/mg protein as shown in FIG. 30 and converted to percent difference. The percent ipsilateral cysteine increase was similar among vehicle-, SS-31-, and SS-20-treated groups (FIG. 31A).

The nature of data set [3]: Scavenging of H2O2, luminol-induced chemiluminescence. Type of data set: biochemical. To be noted: H2O2 4.4 nmol, 20 min, 37° C. On the procedure: Effect of SS-02 and SS-05 (Dmt-D-Arg-Phe Orn-NH2) on H2O2 as measured by luminol-induced chemiluminescence, 25 μM luminol and 0.7 IU horseradish peroxidase were added to the solution of H2O2 (4.4 nmol) and peptide, and chemiluminescence was monitored with a Chronolog Model 560 aggregometer (Havertown, Pa.) for 20 min at 37° C.

Where a SMILES comes first, the peptide text is derived from it. [ ]: non-standard residue; d: D form. Dmt = Cc1cc(O)cc(C)c1C[C@H](N)C(=O)O

On to `Cc1cc(O)cc(C)c1C[C@H](NC(=O)[C@H](N)CCCNC(=N)N)C(=O)N[C@@H](CCCCN)C(=O)N[C@@H](Cc1ccccc1)C(N)=O` [SS-31, D-Arg-2′6′-Dmt-Lys-Phe-NH2] (H-[dR][Dmt]KF-NH2; N-terminus assumed), for which the “recipients with sustained normoglycemia” value in the data set with Diabetic DBA/2 mice (islets from SS-31 treated donor mice) is given as 5 of ten. Also, in the data set with Diabetic DBA/2 mice (mouse, in vivo), the “effect of discontinuation of SS-31 treatment on day 10” value was “did not result in return of hyperglycemia” and the “time of reversal of hyperglycemia post-transplant” value was no more than 1 days. Besides, the “number of apoptotic cells” value with SN-4741 cells is recorded as “reduced the number of apoptotic cells”. Moreover, the “penetration of intact mouse islets” value in the data set with DBA/2 islet cells is reported as “readily penetrates”. In addition, in data set [1], the “apoptosis in endothelial cells and myocytes (TUNEL)” value is listed as “prevents apoptosis”; the coronary flow result was “significantly improved”; the “lipid peroxidation (HNE-modified proteins)” value was “Reduces Lipid Peroxidation”. In addition, in the data set with N2A cells (100 μM tBHP, 24 h), the “increase in pan-caspase activity” value is recorded as “dose-dependently prevented”. For the same compound, in the data set on N2A cells (t-BHP 12 h), the caspase activity entry is “dose-dependently inhibited”. Also, in data set [2], the “ischemia-induced GSH depletion in the cortex” value is “significantly attenuated”, the “percent ipsilateral cysteine increase” value is recorded as “similar” and the “percent ipsilateral depletion of ascorbate” value was “marginally but not significantly affected”.

Turning to 2′,6′-Dmt-Arg-Phe-Lys-NH2 [SS-02], the “luminol response (H2O2 scavenging)” value in data set [3] is reported as “dose-dependently inhibited”.

Source of the values: patent publication US9950026B2, “Methods for reducing oxidative damage” (Cornell Research Foundation, Inc., priority 2004, dated 2018).
